According to article PMC5513037, “Examining the influence of specificity ligands and ATP-competitive ligands on the overall effectiveness of bivalent kinase inhibitors” (Proteome Science, 2017):

Key:
Assay in all cases: KAM-matrix competition in K562 lysate;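 for 0.001 uM KAM: median log10 fold change of treatment over DMSO control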;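 for 0.01 uM KAM: median log10 fold change of treatment over DMSO control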;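 for 0.1 uM KAM: median log10 fold change of treatment over DMSO control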;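 for 1 uM KAM: median log10 fold change of treatment over DMSO control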;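 for 10 uM KAM: median log10 fold change of treatment over DMSO control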
Type in all cases: binding
AURKB = biological target: T1, AURKB (Homo sapiens, UniProt Q96GD4)
T1 construct: endogenous in cells; host or cells: K562
Description: (§1) Supplement 12953_2017_125_MOESM1_ESM.zip/MS_Supp Info.xlsx, sheet "KAM" | column: 10 uM KAM; 1 uM KAM; 0.1 uM KAM; 0.01 uM KAM; 0.001 uM KAM; RB50

RPS6KA1 = biological target: T2, RPS6KA1 (Homo sapiens, UniProt Q15418);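 for 0.001 uM KAM: median log10 fold change of treatment over DMSO control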;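 for 0.01 uM KAM: median log10 fold change of treatment over DMSO control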;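 for 0.1 uM KAM: median log10 fold change of treatment over DMSO control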;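 for 1 uM KAM: median log10 fold change of treatment over DMSO control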;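 for 10 uM KAM: median log10 fold change of treatment over DMSO control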
T2 construct: endogenous in cells; host or cells: K562
Description: as §1

TLK2 = biological target: T3, TLK2 (Homo sapiens, UniProt Q86UE8);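 for 0.001 uM KAM: median log10 fold change of treatment over DMSO control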;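 for 0.01 uM KAM: median log10 fold change of treatment over DMSO control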;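 for 0.1 uM KAM: median log10 fold change of treatment over DMSO control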;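 for 1 uM KAM: median log10 fold change of treatment over DMSO control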;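 for 10 uM KAM: median log10 fold change of treatment over DMSO control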
T3 construct: endogenous in cells; host or cells: K562
Description: as §1

GUCY2F = biological target: T4, GUCY2F (Homo sapiens, UniProt P51841);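 for 0.001 uM KAM: median log10 fold change of treatment over DMSO control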;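 for 0.01 uM KAM: median log10 fold change of treatment over DMSO control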;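 for 0.1 uM KAM: median log10 fold change of treatment over DMSO control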;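 for 1 uM KAM: median log10 fold change of treatment over DMSO control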;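 for 10 uM KAM: median log10 fold change of treatment over DMSO control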
T4 construct: endogenous in cells; host or cells: K562
T4 sequence (P51841 51-1108): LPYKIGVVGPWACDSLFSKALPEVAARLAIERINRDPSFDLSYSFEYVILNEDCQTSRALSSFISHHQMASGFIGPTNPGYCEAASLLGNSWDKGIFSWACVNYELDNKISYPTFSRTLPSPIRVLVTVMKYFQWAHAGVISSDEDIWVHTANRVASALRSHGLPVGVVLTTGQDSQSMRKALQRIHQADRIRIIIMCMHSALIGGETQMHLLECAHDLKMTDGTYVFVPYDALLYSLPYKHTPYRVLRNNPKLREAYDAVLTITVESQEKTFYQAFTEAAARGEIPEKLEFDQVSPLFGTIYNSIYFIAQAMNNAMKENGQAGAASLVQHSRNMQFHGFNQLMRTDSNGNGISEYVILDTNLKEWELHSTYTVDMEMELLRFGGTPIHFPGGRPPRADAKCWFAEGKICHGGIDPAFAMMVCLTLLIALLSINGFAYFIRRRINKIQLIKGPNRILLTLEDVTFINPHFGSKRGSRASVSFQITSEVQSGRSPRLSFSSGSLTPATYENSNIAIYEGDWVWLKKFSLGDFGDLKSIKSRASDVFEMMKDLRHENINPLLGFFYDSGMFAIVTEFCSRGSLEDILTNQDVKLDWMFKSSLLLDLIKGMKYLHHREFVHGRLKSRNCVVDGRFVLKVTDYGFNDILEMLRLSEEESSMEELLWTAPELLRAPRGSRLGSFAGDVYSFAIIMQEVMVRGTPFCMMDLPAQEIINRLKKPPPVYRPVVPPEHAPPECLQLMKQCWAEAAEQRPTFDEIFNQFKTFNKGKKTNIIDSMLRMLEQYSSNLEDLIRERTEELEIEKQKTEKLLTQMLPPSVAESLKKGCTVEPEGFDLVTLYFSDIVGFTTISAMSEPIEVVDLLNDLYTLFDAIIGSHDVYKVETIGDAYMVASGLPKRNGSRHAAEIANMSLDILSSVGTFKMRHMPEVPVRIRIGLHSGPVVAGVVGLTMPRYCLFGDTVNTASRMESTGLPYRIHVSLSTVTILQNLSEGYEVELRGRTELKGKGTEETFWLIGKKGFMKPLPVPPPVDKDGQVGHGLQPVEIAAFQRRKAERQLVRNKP
Description: as §1

PDPK1 = biological target: T5, PDPK1 (Homo sapiens, UniProt O15530);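 for 0.001 uM KAM: median log10 fold change of treatment over DMSO control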;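 for 0.01 uM KAM: median log10 fold change of treatment over DMSO control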;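 for 0.1 uM KAM: median log10 fold change of treatment over DMSO control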;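 for 1 uM KAM: median log10 fold change of treatment over DMSO control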;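 for 10 uM KAM: median log10 fold change of treatment over DMSO control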
T5 construct: endogenous in cells; host or cells: K562
T5 sequence (O15530 1-556): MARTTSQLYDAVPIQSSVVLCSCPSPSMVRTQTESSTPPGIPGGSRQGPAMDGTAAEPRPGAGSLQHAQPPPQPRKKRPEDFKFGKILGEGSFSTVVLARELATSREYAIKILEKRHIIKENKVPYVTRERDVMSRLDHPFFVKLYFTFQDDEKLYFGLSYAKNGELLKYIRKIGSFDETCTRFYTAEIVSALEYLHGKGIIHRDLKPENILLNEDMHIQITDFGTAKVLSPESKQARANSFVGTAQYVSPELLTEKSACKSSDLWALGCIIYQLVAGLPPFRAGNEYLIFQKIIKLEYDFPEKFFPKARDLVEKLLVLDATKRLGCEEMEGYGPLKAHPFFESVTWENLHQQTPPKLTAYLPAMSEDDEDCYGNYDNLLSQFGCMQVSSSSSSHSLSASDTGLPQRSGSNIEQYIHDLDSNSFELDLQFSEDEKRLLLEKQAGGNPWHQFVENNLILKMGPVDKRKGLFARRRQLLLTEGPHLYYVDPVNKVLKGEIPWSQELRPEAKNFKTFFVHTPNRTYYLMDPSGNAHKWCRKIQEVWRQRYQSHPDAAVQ
Description: as §1

MYO3A = biological target: T6, MYO3A (Homo sapiens, UniProt Q8NEV4);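 for 0.001 uM KAM: median log10 fold change of treatment over DMSO control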;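 for 0.01 uM KAM: median log10 fold change of treatment over DMSO control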;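 for 0.1 uM KAM: median log10 fold change of treatment over DMSO control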;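 for 1 uM KAM: median log10 fold change of treatment over DMSO control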;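 for 10 uM KAM: median log10 fold change of treatment over DMSO control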
T6 construct: endogenous in cells; host or cells: K562
Description: as §1

EIF2AK4 = biological target: T7, EIF2AK4 (Homo sapiens, UniProt Q9P2K8);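 for 0.001 uM KAM: median log10 fold change of treatment over DMSO control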;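 for 0.01 uM KAM: median log10 fold change of treatment over DMSO control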;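 for 0.1 uM KAM: median log10 fold change of treatment over DMSO control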;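 for 1 uM KAM: median log10 fold change of treatment over DMSO control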;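 for 10 uM KAM: median log10 fold change of treatment over DMSO control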
T7 construct: endogenous in cells; host or cells: K562
Description: as §1

PRKCB = biological target: T8, PRKCB (Homo sapiens, UniProt P05771)
T8 construct: endogenous in cells; host or cells: K562
Description: as §1

[1] = read-out: RB50 (the source's name)
[2] = KAM 0.001-10 uM, read-out: RB50 (the source's name)

T2 sequence (Q15418 whole entry): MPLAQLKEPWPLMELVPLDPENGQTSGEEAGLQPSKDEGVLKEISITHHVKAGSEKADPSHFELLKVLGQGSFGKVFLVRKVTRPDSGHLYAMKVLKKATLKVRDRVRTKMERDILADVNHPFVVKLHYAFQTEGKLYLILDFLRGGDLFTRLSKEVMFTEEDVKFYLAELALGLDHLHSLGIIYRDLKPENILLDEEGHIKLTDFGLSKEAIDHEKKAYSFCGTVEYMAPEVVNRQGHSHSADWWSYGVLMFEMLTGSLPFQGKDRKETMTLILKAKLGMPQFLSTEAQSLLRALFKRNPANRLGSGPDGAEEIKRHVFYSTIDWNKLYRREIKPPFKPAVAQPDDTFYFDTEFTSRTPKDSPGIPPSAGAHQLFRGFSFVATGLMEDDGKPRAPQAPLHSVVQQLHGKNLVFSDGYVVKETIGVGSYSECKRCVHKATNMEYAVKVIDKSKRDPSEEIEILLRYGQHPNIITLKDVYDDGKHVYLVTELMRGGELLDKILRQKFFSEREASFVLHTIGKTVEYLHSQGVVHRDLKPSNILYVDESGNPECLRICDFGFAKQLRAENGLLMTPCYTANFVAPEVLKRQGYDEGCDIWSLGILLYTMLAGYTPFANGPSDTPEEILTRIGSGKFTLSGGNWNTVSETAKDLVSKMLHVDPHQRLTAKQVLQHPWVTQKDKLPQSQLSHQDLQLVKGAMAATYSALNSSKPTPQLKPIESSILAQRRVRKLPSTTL
T8 sequence (P05771 whole entry): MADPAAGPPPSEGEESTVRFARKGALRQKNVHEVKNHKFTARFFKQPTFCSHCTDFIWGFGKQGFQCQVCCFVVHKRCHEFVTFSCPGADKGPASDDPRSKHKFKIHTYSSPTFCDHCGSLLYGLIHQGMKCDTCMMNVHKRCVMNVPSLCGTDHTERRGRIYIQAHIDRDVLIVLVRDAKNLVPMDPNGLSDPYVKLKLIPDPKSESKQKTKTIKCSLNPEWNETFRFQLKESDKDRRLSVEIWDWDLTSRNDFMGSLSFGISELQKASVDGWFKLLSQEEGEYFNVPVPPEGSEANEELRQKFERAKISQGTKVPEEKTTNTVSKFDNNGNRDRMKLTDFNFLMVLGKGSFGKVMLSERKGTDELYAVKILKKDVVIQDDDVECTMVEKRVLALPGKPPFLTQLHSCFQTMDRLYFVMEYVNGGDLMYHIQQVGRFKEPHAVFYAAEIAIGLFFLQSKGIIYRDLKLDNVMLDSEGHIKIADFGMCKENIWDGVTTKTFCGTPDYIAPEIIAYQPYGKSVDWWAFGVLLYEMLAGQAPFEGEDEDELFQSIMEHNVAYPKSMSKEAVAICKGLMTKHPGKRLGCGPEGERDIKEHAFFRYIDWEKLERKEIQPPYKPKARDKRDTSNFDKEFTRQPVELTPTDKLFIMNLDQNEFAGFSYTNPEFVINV
T6 sequence (Q8NEV4 whole entry): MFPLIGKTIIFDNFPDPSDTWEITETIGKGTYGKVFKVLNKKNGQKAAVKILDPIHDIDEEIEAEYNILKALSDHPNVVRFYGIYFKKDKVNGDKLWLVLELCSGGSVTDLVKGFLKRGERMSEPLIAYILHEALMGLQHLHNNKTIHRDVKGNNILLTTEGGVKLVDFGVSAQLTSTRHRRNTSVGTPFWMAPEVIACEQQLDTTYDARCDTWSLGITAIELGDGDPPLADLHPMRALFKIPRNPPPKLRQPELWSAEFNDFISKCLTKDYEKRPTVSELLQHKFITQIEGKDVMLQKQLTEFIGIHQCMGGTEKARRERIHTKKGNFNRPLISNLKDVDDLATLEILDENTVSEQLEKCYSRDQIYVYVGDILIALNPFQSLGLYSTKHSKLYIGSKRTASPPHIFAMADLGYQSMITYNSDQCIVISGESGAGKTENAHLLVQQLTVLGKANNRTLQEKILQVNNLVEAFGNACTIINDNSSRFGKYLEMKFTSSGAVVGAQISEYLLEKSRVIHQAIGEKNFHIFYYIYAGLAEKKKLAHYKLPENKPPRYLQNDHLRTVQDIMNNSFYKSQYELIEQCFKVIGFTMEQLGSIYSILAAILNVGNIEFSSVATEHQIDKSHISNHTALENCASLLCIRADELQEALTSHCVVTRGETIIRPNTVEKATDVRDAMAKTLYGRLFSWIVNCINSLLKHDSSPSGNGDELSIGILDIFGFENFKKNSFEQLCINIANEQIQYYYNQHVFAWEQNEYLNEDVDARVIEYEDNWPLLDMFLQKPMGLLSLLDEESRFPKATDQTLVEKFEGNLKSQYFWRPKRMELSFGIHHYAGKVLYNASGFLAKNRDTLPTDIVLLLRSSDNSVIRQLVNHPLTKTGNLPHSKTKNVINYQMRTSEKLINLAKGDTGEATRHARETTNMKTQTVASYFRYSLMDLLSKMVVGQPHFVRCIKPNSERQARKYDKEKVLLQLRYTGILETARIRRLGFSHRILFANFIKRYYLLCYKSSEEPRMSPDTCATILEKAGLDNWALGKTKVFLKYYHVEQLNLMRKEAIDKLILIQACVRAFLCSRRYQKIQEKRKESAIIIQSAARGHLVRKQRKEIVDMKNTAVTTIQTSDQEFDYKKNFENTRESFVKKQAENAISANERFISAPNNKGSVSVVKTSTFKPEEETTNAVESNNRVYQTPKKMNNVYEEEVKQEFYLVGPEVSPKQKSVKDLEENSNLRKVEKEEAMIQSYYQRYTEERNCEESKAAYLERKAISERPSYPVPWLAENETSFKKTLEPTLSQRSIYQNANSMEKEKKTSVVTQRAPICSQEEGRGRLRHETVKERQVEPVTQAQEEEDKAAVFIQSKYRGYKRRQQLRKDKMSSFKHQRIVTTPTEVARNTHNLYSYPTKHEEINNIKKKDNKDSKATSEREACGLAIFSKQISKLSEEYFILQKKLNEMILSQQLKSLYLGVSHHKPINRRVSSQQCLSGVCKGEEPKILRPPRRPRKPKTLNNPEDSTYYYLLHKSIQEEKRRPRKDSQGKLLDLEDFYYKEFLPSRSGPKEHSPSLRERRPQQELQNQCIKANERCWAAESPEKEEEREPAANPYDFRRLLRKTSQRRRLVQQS
T7 sequence (Q9P2K8 whole entry): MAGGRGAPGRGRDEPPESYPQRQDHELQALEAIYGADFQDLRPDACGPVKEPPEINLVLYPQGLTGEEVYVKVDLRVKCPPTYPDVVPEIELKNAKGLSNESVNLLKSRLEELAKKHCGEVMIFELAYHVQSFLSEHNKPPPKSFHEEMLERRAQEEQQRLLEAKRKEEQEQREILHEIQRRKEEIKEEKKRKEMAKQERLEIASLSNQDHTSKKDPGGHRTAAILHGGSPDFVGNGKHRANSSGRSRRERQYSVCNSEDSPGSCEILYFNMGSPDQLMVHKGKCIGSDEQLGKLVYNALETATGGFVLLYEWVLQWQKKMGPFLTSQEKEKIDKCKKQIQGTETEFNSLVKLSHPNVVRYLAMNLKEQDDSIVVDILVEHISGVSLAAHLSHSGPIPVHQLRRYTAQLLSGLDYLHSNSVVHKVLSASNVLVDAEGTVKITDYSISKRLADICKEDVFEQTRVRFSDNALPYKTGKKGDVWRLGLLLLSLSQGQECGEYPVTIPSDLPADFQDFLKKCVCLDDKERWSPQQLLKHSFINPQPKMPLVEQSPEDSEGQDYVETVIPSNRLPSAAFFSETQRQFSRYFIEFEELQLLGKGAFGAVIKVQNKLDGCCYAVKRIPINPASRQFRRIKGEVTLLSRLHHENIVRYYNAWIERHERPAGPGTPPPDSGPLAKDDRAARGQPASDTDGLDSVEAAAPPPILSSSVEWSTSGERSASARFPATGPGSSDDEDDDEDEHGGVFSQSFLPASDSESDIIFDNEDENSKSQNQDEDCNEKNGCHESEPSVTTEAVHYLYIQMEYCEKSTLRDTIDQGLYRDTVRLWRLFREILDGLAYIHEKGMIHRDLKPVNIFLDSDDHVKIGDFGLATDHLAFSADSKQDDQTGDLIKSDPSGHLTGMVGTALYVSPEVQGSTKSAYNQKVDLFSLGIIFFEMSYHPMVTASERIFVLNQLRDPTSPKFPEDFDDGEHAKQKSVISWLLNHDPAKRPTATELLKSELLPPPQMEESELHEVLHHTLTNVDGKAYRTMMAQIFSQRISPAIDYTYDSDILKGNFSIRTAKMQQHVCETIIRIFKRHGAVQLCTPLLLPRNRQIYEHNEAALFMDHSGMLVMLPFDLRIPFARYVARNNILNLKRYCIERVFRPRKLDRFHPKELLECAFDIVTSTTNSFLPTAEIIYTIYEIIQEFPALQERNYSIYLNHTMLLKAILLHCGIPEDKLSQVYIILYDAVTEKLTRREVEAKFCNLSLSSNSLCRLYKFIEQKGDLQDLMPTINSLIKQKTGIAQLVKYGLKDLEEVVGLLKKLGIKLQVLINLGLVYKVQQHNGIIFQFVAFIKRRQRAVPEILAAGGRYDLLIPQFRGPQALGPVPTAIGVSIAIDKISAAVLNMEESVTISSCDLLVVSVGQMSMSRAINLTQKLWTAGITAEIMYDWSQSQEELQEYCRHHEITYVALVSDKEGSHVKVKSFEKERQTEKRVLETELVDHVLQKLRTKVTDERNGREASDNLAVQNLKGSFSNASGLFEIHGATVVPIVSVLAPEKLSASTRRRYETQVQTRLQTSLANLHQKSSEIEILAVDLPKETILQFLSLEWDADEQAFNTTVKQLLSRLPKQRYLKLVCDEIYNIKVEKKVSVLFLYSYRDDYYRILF
T1 sequence (Q96GD4 whole entry): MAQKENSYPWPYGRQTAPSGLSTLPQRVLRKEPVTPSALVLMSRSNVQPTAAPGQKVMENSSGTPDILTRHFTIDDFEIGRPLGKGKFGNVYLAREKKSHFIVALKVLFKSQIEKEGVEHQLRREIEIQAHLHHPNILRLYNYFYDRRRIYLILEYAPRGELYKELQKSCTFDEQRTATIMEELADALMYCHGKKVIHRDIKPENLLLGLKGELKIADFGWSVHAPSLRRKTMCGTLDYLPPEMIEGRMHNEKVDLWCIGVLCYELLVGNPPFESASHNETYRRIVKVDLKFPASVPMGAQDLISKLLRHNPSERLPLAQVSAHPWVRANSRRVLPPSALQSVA

N#CCc1ccc(Nc2nc(NCCCN)cc(Nc3cc(C4CC4)[nH]n3)n2)cc1 [KAM]
median Log10 fold change (AURKB; 0.001 uM KAM): 0.001732
median Log10 fold change (AURKB; 0.01 uM KAM): -0.09106
median Log10 fold change (AURKB; 0.1 uM KAM): -0.3265
median Log10 fold change (AURKB; 1 uM KAM): -0.4096
median Log10 fold change (AURKB; 10 uM KAM): -0.3913
IC50 (AURKB; [1]): 0.137 µM
IC50 (RPS6KA1; [2]): > 10 µM
0.001 uM KAM (RPS6KA1; relative to 0 uM KAM = 0): -0.05187
0.01 uM KAM (RPS6KA1; relative to 0 uM KAM = 0): 0.03804
0.1 uM KAM (RPS6KA1; relative to 0 uM KAM = 0): -0.06196
1 uM KAM (RPS6KA1; relative to 0 uM KAM = 0): -0.09025
10 uM KAM (RPS6KA1; relative to 0 uM KAM = 0): -0.1209
IC50 (TLK2; [2]): > 10 µM
0.001 uM KAM (TLK2; relative to 0 uM KAM = 0): -0.002954
0.01 uM KAM (TLK2; relative to 0 uM KAM = 0): -0.03195
0.1 uM KAM (TLK2; relative to 0 uM KAM = 0): -0.07515
1 uM KAM (TLK2; relative to 0 uM KAM = 0): 0.001633
10 uM KAM (TLK2; relative to 0 uM KAM = 0): -0.09222
IC50 (GUCY2F; [2]): > 10 µM
0.001 uM KAM (GUCY2F; relative to 0 uM KAM = 0): -0.02463
0.01 uM KAM (GUCY2F; relative to 0 uM KAM = 0): -0.02113
0.1 uM KAM (GUCY2F; relative to 0 uM KAM = 0): 0.03818
1 uM KAM (GUCY2F; relative to 0 uM KAM = 0): 0.1179
10 uM KAM (GUCY2F; relative to 0 uM KAM = 0): -0.02163
IC50 (PDPK1; [2]): > 10 µM
0.001 uM KAM (PDPK1; relative to 0 uM KAM = 0): -0.001927
0.01 uM KAM (PDPK1; relative to 0 uM KAM = 0): -0.01199
0.1 uM KAM (PDPK1; relative to 0 uM KAM = 0): -0.03413
1 uM KAM (PDPK1; relative to 0 uM KAM = 0): -0.1736
10 uM KAM (PDPK1; relative to 0 uM KAM = 0): -0.2461
IC50 (MYO3A; [2]): > 10 µM
0.001 uM KAM (MYO3A; relative to 0 uM KAM = 0): -0.00983
0.01 uM KAM (MYO3A; relative to 0 uM KAM = 0): 0.0682
0.1 uM KAM (MYO3A; relative to 0 uM KAM = 0): 0.01204
1 uM KAM (MYO3A; relative to 0 uM KAM = 0): 0.07454
10 uM KAM (MYO3A; relative to 0 uM KAM = 0): -0.0706
IC50 (EIF2AK4; [2]): > 10 µM
0.001 uM KAM (EIF2AK4; relative to 0 uM KAM = 0): -0.0489
0.01 uM KAM (EIF2AK4; relative to 0 uM KAM = 0): 0.01964
0.1 uM KAM (EIF2AK4; relative to 0 uM KAM = 0): -0.07688
1 uM KAM (EIF2AK4; relative to 0 uM KAM = 0): -0.1098
10 uM KAM (EIF2AK4; relative to 0 uM KAM = 0): -0.203
median Log10 fold change (PRKCB; 0.001 uM KAM): -0.003193
median Log10 fold change (PRKCB; 0.01 uM KAM): -0.01706
median Log10 fold change (PRKCB; 0.1 uM KAM): -0.1711
median Log10 fold change (PRKCB; 1 uM KAM): -0.4944
median Log10 fold change (PRKCB; 10 uM KAM): -0.6051
IC50 (PRKCB; [1]): 0.354 µM
